This is an account of results in patent publication US20120225909A1, “INDAZOLE ANALOG” (priority 2009, published 2012).

The target in series [1] is T1, human β1-adrenergic receptor (Homo sapiens, UniProt P08588).
T1 construct: expressed in transfected cells; host or cells: CHO (Chinese hamster ovary) cells, pcDNA3
Put plainly: Test Case 2-C: human β1-adrenergic receptor agonist activity (Cerep cellular functional GPCR, beta 1). The conditions noted are these: concentration 10 μM, isoproterenol = 100%. It counts as cell-based. The text has this: Measurement of Human β1-Adrenergic Receptor Agonist Activity

Series [2] addresses T2, human β2-adrenergic receptor (Homo sapiens, UniProt P07550).
T2 construct: expressed in transfected cells; host or cells: CHO (Chinese hamster ovary) cells, pcDNA3
As to the kind of experiment: Test Case 3-C: human β2-adrenergic receptor agonist activity (Cerep cellular functional GPCR, beta 2). It counts as cell-based. The conditions noted are these: concentration 10 μM, isoproterenol = 100%. The text has this: (§1) Measurement of Human β2-Adrenergic Receptor Agonist Activity

Series [3] deals with T3, human α1A-adrenergic receptor (Homo sapiens, UniProt P35348).
T3 sequence (P35348 1-466): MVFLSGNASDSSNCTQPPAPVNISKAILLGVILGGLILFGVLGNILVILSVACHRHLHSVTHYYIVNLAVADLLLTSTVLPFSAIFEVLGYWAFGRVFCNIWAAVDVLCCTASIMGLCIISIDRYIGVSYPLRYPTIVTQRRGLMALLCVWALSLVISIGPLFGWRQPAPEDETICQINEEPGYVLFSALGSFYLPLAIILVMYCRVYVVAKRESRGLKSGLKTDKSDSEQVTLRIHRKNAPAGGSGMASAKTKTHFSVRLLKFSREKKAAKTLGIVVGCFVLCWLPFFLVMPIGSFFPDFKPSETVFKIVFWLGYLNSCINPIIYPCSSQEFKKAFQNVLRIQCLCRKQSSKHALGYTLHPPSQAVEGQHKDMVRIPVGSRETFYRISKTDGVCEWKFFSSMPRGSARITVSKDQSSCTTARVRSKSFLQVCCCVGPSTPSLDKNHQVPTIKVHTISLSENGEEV
Put plainly: Test Case 4-B: human α1A-adrenergic receptor agonist activity (Cerep cellular functional GPCR, alpha 1A). It counts as cell-based. Further details: expressed in transfected cells. The following applies: concentration 10 μM; for α1 receptor % of Control Agonist Response, Control; Epinephrine: epinephrine = 100%; for α1 receptor % of Control Agonist Response, Control; Norepinephrine: norepinephrine = 100%. The text has this:
Measurement of Human α1A-Adrenergic Receptor Agonist Activity
The human α1A-adrenergic receptor agonist activity] can be measured by […] Functional GPCR·Gs, alpha 1A (Ref. 722-36a) listed on p. 52 of the Cerep 2008 CATALOG IN VITRO PHARMACOLOGY & ADME-TOX.

Series [4] concerns pentobarbital-anesthetized rats. As to the kind of experiment: Test Case 9: effects on the blood pressure and heart rate in pentobarbital-anesthetized rats. It counts as in vivo, rat. The conditions noted are these: anesthetized male SD rats; 3 mg/kg intravenous over 30 seconds; maximum change, mean±standard deviation. The method, then:
Effects on the blood pressure and heart rate in pentobarbital-anesthetized rats
The blood pressure and heart rate of rats under pentobarbital anesthesia are measured, and the effects of rapid intravenous administration of the test compound on the blood pressure and heart rate can be studied. After anesthetizing male SD rats (Japan SLC) by intraperitoneal administration of 50 mg/kg of pentobarbital sodium (Tokyo Chemical Industry Co., Ltd.), 25 mg/kg of pentobarbital sodium is administered subcutaneously as maintenance anesthesia. The left femoral vein is exposed and stripped, and a SP10 polyethylene tube filled with saline (connected to a three-way stopcock via a ¼ venous needle) is inserted and left in place in the vein.
The inside of the left thigh is cut, and the femoral artery is exposed and stripped. A polyethylene tube filled with heparinized physiological saline solution (SP31, connected to a three-way stopcock via a Terumo injection needle 22G) is inserted and connected to a pressure transducer. The blood pressure is measured from the pressure transducer via a strain pressure amplifier (AP-641G, Nihon Kohden). The heart rate is measured with the pulse wave of the blood pressure as a trigger via a heart rate counter (AT-601G, Nihon Kohden). The blood pressure, mean blood pressure, and heart rate are output to a recorder and recorded. Furthermore, the mean blood pressure is recorded via the strain pressure amplifier (AP-641G) using the formula {[…]}.
Specifically, 3 mg/mL of test compound is administered rapidly at a volume of 1 mL/kg. The relative value (%) of the values at each point in time versus the mean blood pressure and heart rate before beginning administration are determined for each individual, and the mean±standard deviation of the relative value (%) at the time of the maximum change in each parameter is determined.

The test system of series [5] is Male C57BL/6 Cr mice. Put plainly: Test Case 10: mouse piloerection test. Type of series: in vivo. The following applies: 10 mg/kg i.v., Score 0.
For series [6], the target named is T2, human β2-adrenergic receptor. As to the kind of experiment: Test Case 3-B: human β2-adrenergic receptor agonist activity. It counts as cell-based. The conditions noted are these: read-out: β2 receptor I.A. The method, then:
as §1
The human β2-adrenergic receptor agonist activity is measured by the same method as in Test Case 1-B using CHO (Chinese hamster ovary) cells transfected by a human β2 gene inserted in pcDNA3 (Invitrogen).

The target of series [7] is T4, human β3-adrenergic receptor (Homo sapiens, UniProt P13945).
T4 construct: A full-length human β3 gene is obtained from a human genomic library (made by Clontech) using this as the probe; expressed in transfected cells; host or cells: CHO (Chinese hamster ovary) cells, pcDNA3
T4 sequence (P13945 whole entry): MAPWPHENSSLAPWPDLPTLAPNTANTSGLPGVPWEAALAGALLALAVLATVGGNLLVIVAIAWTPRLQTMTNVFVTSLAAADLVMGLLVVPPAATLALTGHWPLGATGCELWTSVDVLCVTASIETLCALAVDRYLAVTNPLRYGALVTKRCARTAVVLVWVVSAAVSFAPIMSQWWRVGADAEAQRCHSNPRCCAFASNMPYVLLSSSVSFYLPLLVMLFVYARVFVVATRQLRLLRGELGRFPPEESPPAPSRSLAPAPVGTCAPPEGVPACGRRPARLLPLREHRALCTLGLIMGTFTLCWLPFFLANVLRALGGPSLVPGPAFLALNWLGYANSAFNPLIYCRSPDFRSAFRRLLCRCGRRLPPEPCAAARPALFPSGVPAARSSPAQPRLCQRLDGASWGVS
As to the kind of experiment: Test Case 1-B: human β3-adrenergic receptor agonist activity (cAMP-Screen, 96-well). The following applies: for Emax: 0.5 h, read-out: β3 receptor I.A.; for EC50: CHO cells, cAMP. It counts as cell-based. In a few lines: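 CHO cells stably transfected with full-length human β3 gene, serum-starved 15 min, then exposed to serially diluted compound in Ham's F-12 with 100 mmol/L HEPES and 1 mmol/L IBMX (diluent concentrations) for 30 min. Cells lysed 30 min at 37 °C; cAMP quantified by cAMP-Screen immunoassay.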

In series [8] the target is T4, human β3-adrenergic receptor. As to the kind of experiment: Test Case 1-A: human β3-adrenergic receptor agonist activity (cAMP-EIA, 24-well). The following applies: maximum response of isoproterenol = 100%. It counts as cell-based. The method, then: Measurement of Human β3-Adrenergic Receptor Agonist Activity
The human β3-adrenergic receptor agonist activity is measured using CHO (Chinese hamster ovary) cells transfected by a human β3 gene inserted in pcDNA3 (Invitrogen). […] A full-length human β3 gene is obtained from a human genomic library (made by Clontech) using this as the probe. These cells are cultured in Ham's F-12 medium containing 10% fetal calf serum and 400 μg/mL genectin (Invitrogen). These cells are sown in 24-well plates to make 1×10^5 cells/well. After culturing for approximately 20 hours, they are allowed to stand for two hours in serum-free Ham's F-12 medium. […] After culturing for 30 minutes, the medium is removed, and 0.1 mL of 1 N NaOH is added and allowed to stand for 20 minutes. A quantity of 0.1 mL of 1 N acetic acid is added. After stirring, centrifugation is performed, and cAMP is assayed using a cAMP-EIA kit (made by Cayman).

For series [9], the system named is common marmoset isolated bladder smooth muscle. Put plainly: Test Case 7: common marmoset isolated bladder smooth muscle relaxation test. The conditions noted are these: KCl 40 mmol/L contracted marmoset bladder, papaverine 10^−4 mol/L relaxation = 100%. The procedure:
Common Marmoset Isolated Bladder Smooth Muscle Relaxation Test
After sacrificing common marmosets (Japan CLEA) by exsanguination, they are laparotomized and the urinary bladder is removed. […] The specimens are loaded with one gram of resting tension and stabilized for 30 or more minutes. After the resting tension of the specimen has stabilized, a final concentration of 40 mmol/L of KCl is added repeatedly, and it is confirmed that the contraction in response to KCl has basically become constant. […] Taking that relaxation response as 100%, the relaxation rate (%) at test compound concentrations of […] is calculated.

T2 sequence (P07550 whole entry): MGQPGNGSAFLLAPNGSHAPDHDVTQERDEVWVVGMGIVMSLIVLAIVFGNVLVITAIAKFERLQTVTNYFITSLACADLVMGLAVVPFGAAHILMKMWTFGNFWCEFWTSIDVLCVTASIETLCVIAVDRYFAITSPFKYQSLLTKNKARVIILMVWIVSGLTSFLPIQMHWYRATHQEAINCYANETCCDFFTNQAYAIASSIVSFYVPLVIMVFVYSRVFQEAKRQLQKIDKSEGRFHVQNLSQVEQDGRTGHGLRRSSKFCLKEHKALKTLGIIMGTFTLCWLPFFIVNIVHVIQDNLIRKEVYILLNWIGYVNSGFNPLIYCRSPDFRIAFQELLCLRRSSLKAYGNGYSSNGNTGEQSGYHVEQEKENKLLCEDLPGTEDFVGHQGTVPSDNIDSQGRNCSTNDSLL
T1 sequence (P08588 whole entry): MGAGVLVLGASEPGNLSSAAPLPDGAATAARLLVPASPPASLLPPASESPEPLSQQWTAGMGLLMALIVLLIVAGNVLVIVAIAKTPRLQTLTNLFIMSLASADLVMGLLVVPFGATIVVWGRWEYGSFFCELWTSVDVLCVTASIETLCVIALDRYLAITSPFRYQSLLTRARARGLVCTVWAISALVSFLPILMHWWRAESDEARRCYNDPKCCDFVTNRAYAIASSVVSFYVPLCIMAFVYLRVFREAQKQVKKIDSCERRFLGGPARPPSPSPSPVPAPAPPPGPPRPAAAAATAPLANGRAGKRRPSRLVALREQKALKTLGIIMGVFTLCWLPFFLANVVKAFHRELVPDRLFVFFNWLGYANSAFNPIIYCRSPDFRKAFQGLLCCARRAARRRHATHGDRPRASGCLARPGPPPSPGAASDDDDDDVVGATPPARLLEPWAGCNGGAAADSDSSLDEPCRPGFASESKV

On to `CCc1n[nH]c2cc(OCCNC[C@H](O)c3cccc(NS(=O)(=O)c4cnn(C)c4)c3)ccc12` [ex135, (R)-N-(3-(2-(2-(3-ethylindazol-6-yloxy)ethylamino)-1-hydroxyethyl)phenyl)-1-methylpyrazole-4-sulfonamide], for which the “β1 receptor % of Control Agonist Response” value in [1] turned out to be 3.7%. Further, in [2], the “β2 receptor % of Control Agonist Response” value is listed as 1.3%. In addition, the “α1 receptor % of Control Agonist Response, Control; Epinephrine” value in [3] came out at 0%. Further, the “α1 receptor % of Control Agonist Response, Control; Norepinephrine” value in series [3] is 0%. Further, in series [4], the “increase in MBP (%)” value was 5.6 ± 1.2%. The “number of experimental animals matching Score 0 (no piloerection)” value is listed as 4 in series [5] (n=4, observation time 5 min); 4 in series [5] (n=4, observation time 15 min); 4 in series [5] (n=4, observation time 30 min); 4 in [5] (n=4, observation time 60 min). The Emax came to 7% in [6] and 105% in series [7]. This compound showed an EC50 in [7] (Test Case 1-B) of 29 nM.

As for `CCc1n[nH]c2cc(OCCNC[C@H](O)c3cccc(NS(=O)(=O)c4cn[nH]c4)c3)ccc12` [ex149], the “β1 receptor % of Control Agonist Response” value in series [1] was 5.2%. Further, in series [2], the “β2 receptor % of Control Agonist Response” value was determined as 0.2%. In addition, the “α1 receptor % of Control Agonist Response, Control; Epinephrine” value in series [3] is on record as 8.5%. Further, the “α1 receptor % of Control Agonist Response, Control; Norepinephrine” value in [3] is on record as 7.3%. Besides, the “increase in MBP (%)” value in series [4] was 2.1 ± 1.9%. For the same compound, the “number of experimental animals matching Score 0 (no piloerection)” value is 4 in series [5] (n=4, observation time 5 min); 4 in [5] (n=4, observation time 15 min); 4 in series [5] (n=4, observation time 30 min); 4 in [5] (n=4, observation time 60 min). The Emax stood at 0% in series [6] and 100% in series [7]. The EC50 in series [7] (Test Case 1-B) was determined as 12 nM.

As to `CC(C)NCC(O)c1ccc(O)c(O)c1` (stereo not shown) [isoproterenol, reference compound], the “β3 receptor I.A.” value in [8] was determined as 100%; in series [7] (Test Case 1-B, maximum response of isoproterenol = 100%), 100%. In addition, the “relaxant activity (%) 10^−4M” value in series [9] (10^−4 M) is given as 54.4%. Further, the “relaxant activity (%) 10^−5M” value in series [9] (10^−5 M) is 50.6%.

In general, EC50 refers to the midpoint of the concentration-response curve. A higher EC50 goes with lower potency in that assay.
